Measured values: ChEMBL document CHEMBL1157539, “Thousands of chemical starting points for antimalarial lead identification” (Nature, 2010)

System: Plasmodium falciparum
Assay: GSK_TCMDC: Inhibition of Plasmodium falciparum 3D7 in whole erythrocytes, using parasite LDH activity as an index of growth.
Format: functional, organism-based
Settings: Plasmodium falciparum, 3D7

SMILES	XC50 [nM]
COc1c(I)cc(Cc2cnc(N)nc2N)cc1I	930
CN(Cc1ccc(-c2ccc(C(F)(F)F)cc2)cc1)C(=O)Cn1c(CCc2cccc(F)c2F)cc(=O)c2ccc(OCCCN3CCCCC3)cc21	706
O=C(/C=C/c1ccc(Cl)c(Cl)c1)NCCCCCCN1CCN(C(=O)Nc2ccc(Cl)c(Cl)c2)CC1	931
O=C(/C=C/c1ccc(Cl)c(Cl)c1)NCCCCCN1CCCN(C(=O)Nc2cccc(Cl)c2)CC1	669
COc1cccc(C2CCN(CCN3CCC(NC(=O)c4ccc(-c5ccc(Cl)cc5)cc4)CC3)CC2)c1	1090
Cc1ccc(S(=O)(=O)N2CCN(C(=O)c3cc(-c4ccccc4)n[nH]3)CC2)cc1	603
Cc1nc(-c2ccccc2)nc(N2CCN(C(=O)c3ccco3)CC2)c1Cc1ccccc1F	927
COc1cccc(NC(=O)Cn2c(C)c(C(=O)C(F)(F)F)c3ccccc32)c1	827
CC(C)CN1CCN(c2nc(C#N)c3c(c2C(=S)NC2CCCCC2)CC(C)(C)OC3)CC1	296
Cc1nc2nc(N)nc(N)c2c(C)c1Cc1ccc(O)cc1	236
COCC(=O)N(Cc1ccccc1-c1cccc(CNCc2ccc3c(c2)OCO3)c1)C1CCN(Cc2ccccc2)CC1	842
CCC(C)NC(=O)CN1CN(c2ccccc2)C2(CCN(C(=O)c3ccc(-c4ccccc4)cc3)CC2)C1=O (configuration not stated)	128
COc1ccc(CCNCCCCCCNCCc2ccc(OC)c(OC)c2Cl)c(Cl)c1OC	904
CCCCC(=O)Nc1cc(=O)[nH]c2nc(-c3ccc(Cl)cc3)nn12	708
Clc1ccc(C=NN=c2cc[nH]c3ccccc23)cc1	723
COc1cc(C(=O)NC2CCN(Cc3ccccc3)CC2)ccc1-c1nc2cc(Cl)c(Cl)cc2[nH]1	521
O=C(Nc1ccc2[nH]c(-c3ccccc3)nc2c1)c1cc(-c2ccc3c(c2)OCCO3)n[nH]1	769
O=C(NC1CCN(Cc2ccccc2)CC1)c1cccc(-c2cc3cc(Cl)c(Cl)cc3[nH]2)c1	725
N=C(N)NN=Cc1ccc2c(ccc3ccccc32)c1	634
CCOc1cc(C(=O)NCCc2ccc(Cl)c(Cl)c2)ccc1-c1nc2cc(Cl)ccc2[nH]1	895
COc1ccc2[nH]cc(C3CCN(CCCCNC(=O)c4ccc(NC(=O)c5ccc(Cl)cc5)cc4)CC3)c2c1	1020
O=C(Nc1ccc(OC2CCN(Cc3ccc(F)cc3)C2)c(Cl)c1)c1cccs1 (configuration not stated)	128
c1ccc2oc(-c3cc4ccncc4cc3OC3CCNCC3)cc2c1	1470
Cn1nccc1C(=O)NCCNCc1cccc(-c2ccc(-c3nc4cc(C(F)(F)F)ccc4[nH]3)s2)c1	151
CCOc1ccc2c(=NN=Cc3c4ccccc4cc4ccccc34)cc(C)[nH]c2c1	1070

SMILES	XC50 [nM]
COc1ccccc1-c1cccc(-c2cccc(NC(=O)c3ccc([N+](=O)[O-])o3)c2)n1	603
Cc1nc2nc(N)nc(N)c2c(C)c1Cc1ccc(N)cc1	644
CCCc1ccc(NC(=O)c2cccc(CN3CCCN(Cc4cccc(O)c4)CC3)c2)cc1	748
COc1ccc(Nc2nc(NN=Cc3cc(Br)c(O)cc3O)nc(Nc3ccc([N+](=O)[O-])cc3)n2)cc1	896
CC(=NNC(S)=NCCc1ccccc1)c1ccccn1	218
CC[C@H]1CN2CC[C@H]1C[C@H]2[C@H](O)c1cc(-c2ccc3ccccc3c2)nc2ccc(OC)cc12	104
O=C(NCCCCN1CCC(c2c[nH]c3ccccc23)CC1)c1ccc(-c2ccc(C(F)(F)F)cc2)cc1	798
COc1cc(CC(C)NCC(O)c2cccc(C(F)(F)F)c2)ccc1OCc1ccccc1 (configuration not stated)	818
CN(c1cc(NC(=O)c2cccs2)ccn1)C1CCN(Cc2ccccc2)CC1	1020
COc1cccc(NC(=O)Cn2c(C)c(C#N)c3ccccc32)c1	878
CN1CCCN(Cc2ccc(-c3cccc(NC(=O)c4ccc(C#N)cc4)c3)cc2)CC1	744
Cc1cccc2nc(-c3ccc(-c4ccc(CN5CCN(CCN6CCOCC6)CC5)cc4)cc3)[nH]c12	231
O=C(NCCCN1CCOCC1)c1cccc(Nc2nccc(Nc3ccc(Oc4ccccc4)cc3)n2)c1	766
COc1cc(C=C(C2=NC(=O)CS2)c2nc3cccnc3n2C)ccc1O	1000
CN1CCCC1CNS(=O)(=O)c1ccc(C(=O)NCC2CC2)cc1 (configuration not stated)	174
CCCNCc1ccc(-c2ccc(CN(Cc3ccc4c(c3)OCO4)C(=O)[C@H]3CCCO3)cc2)nc1	811
CC(C)C(=O)NC(c1cccs1)c1cc(Cl)c2cccnc2c1O (configuration not stated)	575
O=C(NCCCCN1CCC(c2ccc(Br)cc2)CC1)c1ccc(NC(=O)c2ccc(Cl)cc2)cc1	712
CC(C)COc1ccc(Cl)cc1Cc1ccc(-c2nc3ccc(C(F)(F)F)cc3[nH]2)o1	847
Cc1cc(F)ccc1-c1nc(Nc2ccncc2)c2ccn(C)c2n1	940
CCC(C)NCc1c(O)ccc2c(CNC(C)CC)c(O)ccc12 (configuration not stated)	592
CN(C)CCN(C)Cc1cccc(-c2cccc(NC(=O)c3cccc(C#N)c3)c2)c1	873
COc1ccc(Nc2ncc(Cl)c(Nc3cccnc3C(N)=O)n2)cc1N1CCN(C)CC1	225
CS(=O)(=O)c1ccc2c(c1)CCN(CCC1CCC(NC(=O)C(=Cc3ccc(Cl)cc3Cl)c3ccc(-c4ccccc4)cc3)CC1)CC2 (configuration not stated)	1170
CCN(C)CCCn1c(N(C)C)nc2cc(-n3cnc4cc(-c5ccc(Cl)cc5)sc4c3=O)ccc21	1090

SMILES	XC50 [nM]
O=C(Nc1ccc(C(F)(F)F)cc1)Nc1ccccc1N1CCNCC1	500
CN1CCC(N2CCN(Cc3ccc(-c4ccc(-c5nc6cc(F)ccc6[nH]5)s4)cc3)CC2)CC1	153
Cc1nc(C)c(-c2ccc(Oc3ccc(OC(F)(F)F)cc3)cc2)c(O)c1I	128
O=C(/C=C/c1ccc(Cl)c(Cl)c1)NC1CCC(CN2CCC(c3nc4ccccc4s3)CC2)CC1 (configuration not stated)	1020
O=c1[nH]c2ccc(Nc3nccc(NCCc4ccccc4)n3)cc2[nH]1	1210
NC(=O)C1CCN(Cc2ccc(-c3ccc(-c4nc5cc(C(F)(F)F)ccc5[nH]4)s3)cc2)CC1	540
Cn1cccc1C(=O)Nc1cccc(-c2nn3ccccc3c2-c2ccnc(Nc3ccc4c(c3)OCCO4)n2)c1	1350
O=C(C=Cc1ccc(Cl)c(Cl)c1)NCCCCCN1CCCC(CCCNC(=O)c2ccc3c(c2)OCO3)C1 (configuration not stated)	1220
Cc1cccc(NC(=S)NC2CCN(CCCCCNC(=O)/C=C/c3ccc(Cl)c(Cl)c3)CC2)c1	948
CN1CCN(c2ccc3[nH]c(-c4ccc(Cc5cc(Cl)ccc5OCc5ccccc5)o4)nc3c2)CC1	807
CCC(C)CN1CCC(N(C)c2cc(NC(=O)c3cccc(C)c3)ccn2)CC1 (configuration not stated)	937
CCCC(C)Nc1nc(C)cc(N[C@@H](Cc2ccccc2)C(=O)Nc2ccc(OC)cc2)n1 (some centres not stated)	1120
O=C(/C=C/c1ccc(Cl)c(Cl)c1)NCC1CCC(N2CCC(c3c[nH]c4ccccc34)CC2)CC1 (configuration not stated)	172
COc1ccc(CC(C)CON2C(N)=NC(N)=NC2(C)C)cc1 (configuration not stated)	3.2
COc1cccc(-c2ccc(NC(=O)C3CCCN(Cc4cccc(OC)c4O)C3)cc2)c1 (configuration not stated)	847
c1cc(CNC2CCN(CC3CCCCC3)CC2)cc(-n2ccnc2)c1	650
Oc1ccc(Cc2ccccc2)cc1CNC1CCCCC1	188
NC1=NC(c2ccccc2)(c2ccccc2)C(=O)N1Cc1ccccc1Br	865
COc1ccc(Cc2nc3c(n2C(C)=O)SC(c2ccc(Cl)c(Cl)c2)=NN3C(C)=O)cc1	809
OCC(CO)(CO)NCc1ccc2c3c(cccc13)-c1ccccc1-2	1260
COc1cccc(C(=O)Nc2ccc(S(=O)(=O)c3cc4c(cc3OC)CCN(C)CC4)cc2)c1	1100
O=S(=O)(NCCN1CCCC1)c1cccc(-c2cccc(CNCc3ccsc3)c2)c1	872
C=CCC(C(=O)Nc1ccnc2ccc(OC)cc12)C1CCN(CCCCCCC)CC1 (configuration not stated)	242
CC(C)CCNC(=N)c1ccc(OCCCCCOc2ccc(C(=N)NCCC(C)C)cc2)cc1	534
Cc1cc2nc(-c3ccc(C(=O)NCc4ccc(Cl)c(Cl)c4)cc3)[nH]c2cc1C	828

SMILES	XC50 [nM]
Cc1[nH]n(-c2cccc(Cl)c2)c(=O)c1-c1ccc(Cl)cc1	929
COc1ccc(NS(=O)(=O)c2ccc(C(=O)Nc3ccc(C(F)(F)F)cc3)cc2)cc1N1CCN(CC2CC2)CC1	832
O=c1cc(NCCCCNCc2ccc(Br)c(Br)c2)[nH]c2ccccc12	856
N#Cc1cccc(NC(=O)Nc2cccc(-c3cccc(-c4nc5cc(F)ccc5[nH]4)c3)c2)c1	225
O=C(Nc1ccc(N2CCCN(Cc3cccc(F)c3)CC2)cc1)c1ccc(F)cc1	837
Fc1ccc2[nH]c(-c3ccc(-c4ccc(CNCCc5ccncc5)cc4)cc3)nc2c1	142
COc1cc(CNC[C@@H](O)[C@H](Cc2ccccc2)NC(=O)c2cc(C3CCCC3)cc(N3CCCCS3(=O)=O)c2)cc(OC)c1	704
COc1ccc(CNCc2ccc(F)cc2)cc1-c1ccc(OC)c(S(=O)(=O)NCCN2CCCC2)c1	786
COc1ccc(CC(=O)Nc2ccc(Nc3nc(C)cc(N4CCCC4)n3)cc2)cc1	1110
CN(C)CCCn1c(C(=O)OC(c2ccccc2)c2ccccc2)cc2cc(OCc3ccccc3)ccc21	201
N#Cc1ccc2[nH]cc(C(=O)CCCCCN(Cc3ccccc3)Cc3ccccc3)c2c1	785
Cc1ccc(CN2CCCN(Cc3cccc(NC(=O)c4ccc(Cl)c(Cl)c4)c3)CC2)cc1	902
COc1cc2nccc(Nc3ccc(NC(=O)c4ccc(C)cc4)c(O)c3)c2cc1OC	174
CCCC(C)NC(=O)C(N)Cc1cccc(I)c1 (configuration not stated)	975
Cc1[nH]c(C)c(-c2ccc(OCCCc3ccccn3)cc2)c(=O)c1Br	212
Cc1cn(CC(=O)Nc2cccc(-c3cccc(-c4nc5cc(C(F)(F)F)ccc5[nH]4)c3)c2)c(=O)[nH]c1=O	681
O=C(Nc1ccc2c(c1)CCN2C1CCN(Cc2cccc(C(F)(F)F)c2)C1)c1ccco1 (configuration not stated)	564
O=C(Nc1cc(F)cc(F)c1)N[C@H]1CCN(CCCCCNC(=O)C2CC2c2ccc(Cl)c(Cl)c2)C1 (some centres not stated)	1080
CCN(CC)Cc1cc(Nc2c3ccc(Cl)cc3nc3cccc(OC)c23)ccc1O	33.4
CCC(C)c1ccc(Nc2nc(C)cc(N(CC)CCCN3CCCCC3)n2)cc1 (configuration not stated)	332
O=C(NCCCCCN1CCC(c2c[nH]c3ccccc23)CC1)Nc1ccc(Cl)cc1Cl	716
COc1cc(OC)cc(-c2nn(-c3ccc([N+](=O)[O-])cc3Cl)c(=S)n2Cc2ccco2)c1	838
